Source: patent publication US20040023884A1, “Biologically active peptides from functional domains of bactericidal/permeability-increasing protein and uses thereof” (priority 1993, published 2004)
Values after ≈ are worked out from the molar mass of the structure shown. Bridge positions count the residues as written; N and C are the ends. Square brackets hold non-standard residues; d marks the D form. Ends that are not written are not given here. Peptide text beside a SMILES is read from it. 1Nal = N[C@@H](Cc1cccc2ccccc12)C(=O)O

Tests used:
[1] = 3H-heparin binding assay (affinity and capacity)
Summary of the method: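 Peptide fragments were bound to PVDF-membrane wells and incubated with 3H-heparin in blocking buffer for 1 h at 4 °C. After washing, bound radioactivity was quantified by liquid scintillation counting, with BSA background subtracted; rBPI23 served as positive control.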

[2] = system: E. coli 0111:B4 (smooth) bacteria; assay: Radial diffusion bactericidal assay, E. coli 0111:B4; assay type: cell-based; details: radial diffusion; PROBIT analysis; E. coli O111:B4 (smooth)
Staphylococcus aureus = assay: Radial diffusion bactericidal assay, Staphylococcus aureus; assay type: cell-based; details: radial diffusion; PROBIT analysis; S. aureus
RAW 264.7 cells = assay: LPS neutralization cellular proliferation assay, RAW 264.7 cells; assay type: cell-based, mouse
Procedure: In this assay, mouse RAW 264.7 cells (ATCC Accession No. T1B71), maintained in RPMI 1640 media (GIBCO), supplemented with 10 mM HEPES buffer (pH 7.4), 2 mM L-glutamine, penicillin (100U/mL), streptomcin (100 μg/mL), 0.075% sodium bicarbonate, […] 2-mercaptoethanol and 10% fetal bovine serum (Hyclone, Inc., Logan, Utah), were first induced by incubation in the presence of 50U/mL recombinant mouse y-interferon (Genzyme, Cambridge, Mass.) for 24 h prior to assay. Induced cells were then mechanically collected and centrifuged at 500×g at 4° C. and then resuspended in 50 mL RPMI 1640 media (without supplements), re-centrifuged and again resuspended in RPMI 1640 media (without supplements). The cells were counted and their concentration adjusted to 2×10^5 cells/mL and 100 μL aliquots were added to each well of a 96-well microtitre plate. The cells were then incubated for about 15 hours with E. coli O113 LPS (Control Standard. Assoc. of Cape Cod. Woods Hole, Mass.), which was added in 100 μL/well aliquots at a concentration of […] in serum-free RPMI 1640 media (this concentration being the result of titration experiments in which LPS concentration was varied between 50 pg/mL and 100 ng/mL). This incubation was performed in the absence or presence of BPI functional domain peptides in varying concentrations between 25 ng/mL and 50 μg/mL. Recombinant human BPI was used as a positive control at a concentration of 1 μg/mL. Cell proliferation was quantitatively measured by the addition of 1 μCi/well [^3H]-thymidine 5 hours after the time of initiation of the assay. After the 15-hour incubation, labeled cells were harvested onto glass fiber filters with a cell harvester (Inotech Biosystems, EQ-384, Sample Processing and Filter Counting System, Lansing, Mich.).

[3] = system: rough mutant E. coli J5 bacteria; assay: Radial diffusion bactericidal assay, E. coli J5; assay type: cell-based; details: radial diffusion; PROBIT analysis; E. coli J5 (rough)
Summary of the method: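 Log-phase bacteria (3 h at 37 °C in tryptic soy broth), washed in 10 mM sodium phosphate pH 7.4, were embedded at 4×10^6 CFU/mL in underlayer agarose. BPI proteolytic fragments (5 or 10 μL) went into 3 mm wells for 3 h at 37 °C, then agarose overlay and overnight 37 °C growth. Clear zones were measured by micrometer.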

Candida albicans = assay type: cell-based

| Compound | Heparin Capacity ([1]; heparin bound at saturation) | Kd ([1]; read-out: Heparin Affinity) | pmol added to well to achieve a 30 mm^2 bactericidal zone, E. coli O111:B4 [2] | pmol added to well to achieve a 30 mm^2 bactericidal zone, S. aureus (Staphylococcus aureus) | EC50 (peptide concentration at which the growth inhibitory effect of LPS was reversed by 50%) (RAW 264.7 cells) | IC50 (peptide concentration at which RAW cell growth was inhibited by 50%) (RAW 264.7 cells) | pmol added to well to achieve a 30 mm^2 bactericidal zone, E. coli J5 [3] | MIC C. alb (Candida albicans) |
| --- | --- | --- | --- | --- | --- | --- | --- | --- |
| CC[C@H](C)[C@H](N)C(=O)N[C@@H](CCCCN)C(=O)N[C@H](C(=O)N[C@@H](CO)C(=O)NCC(=O)N[C@@H](CCCCN)C(=O)N[C@@H](Cc1cccc2ccccc12)C(=O)N[C@@H](CCCCN)C(=O)N[C@@H](C)C(=O)N[C@@H](CCC(N)=O)C(=O)N[C@@H](Cc1ccccc1)C(=O)N[C@@H](CCCNC(=N)N)C(=O)N[C@@H](Cc1ccccc1)C(=O)N[C@@H](CC(C)C)C(=O)N[C@@H](CCCCN)C(=O)N[C@@H](CCCCN)C(=O)N[C@@H](CO)C(=O)N[C@@H](CCCCN)C(=O)N[C@H](C(=O)NCC(=O)N[C@@H](Cc1c[nH]c2ccccc12)C(=O)N[C@@H](CC(C)C)C(=O)N[C@H](C(=O)N[C@@H](Cc1ccccc1)C(=O)N[C@@H](CC(C)C)C(=O)N[C@@H](Cc1ccccc1)C(=O)N[C@@H](Cc1c[nH]cn1)C(=O)N[C@@H](CCCCN)C(=O)N[C@@H](CCCCN)C(=O)O)[C@@H](C)CC)C(C)C)[C@@H](C)CC [BPI.98] (H-IKISGK[1Nal]KAQFRFLKKSKVGWLIFLFHKK-OH) | 1678.4 ng | 0.683 µM | 63,709.98 pmol | b (no detectable activity up to 5 μg/well) | 0.16 ± 0.08 µg/mL | 16.5 ± 1.9 µg/mL (≈ 4.62 µM) | 4,384.14 pmol |  |
| CC(C)C[C@H](NC(=O)[C@H](Cc1ccccc1)NC(=O)[C@H](CCCNC(=N)N)NC(=O)[C@H](Cc1cccc2ccccc12)NC(=O)[C@H](Cc1cccc2ccccc12)NC(=O)[C@H](C)NC(=O)[C@H](CCCCN)NC(=O)[C@H](Cc1c[nH]c2ccccc12)NC(=O)[C@H](CCCCN)NC(=O)[C@H](CCCCN)NC(=O)[C@H](CC(C)C)NC(=O)[C@H](Cc1ccccc1)NC(=O)[C@H](CCCNC(=N)N)NC(=O)[C@H](CCCCN)NC(=O)[C@H](CCC(N)=O)NC(=O)[C@H](C)NC(=O)[C@H](CCCCN)NC(=O)[C@H](Cc1c[nH]c2ccccc12)NC(=O)[C@@H](N)CCCCN)C(=O)N[C@@H](CCCCN)C(=O)O [BPI.155] (H-KWKAQKRFLKKWKA[1Nal][1Nal]RFLK-OH; N-terminus and C-terminus assumed) |  |  | 53,027,986.44 pmol | 5,530,185,440.73 pmol |  |  | 5,912.26 pmol | >100.00 µg/mL |
| CC[C@H](C)[C@H](NC(=O)[C@H](CC(C)C)NC(=O)[C@H](Cc1c[nH]c2ccccc12)NC(=O)CNC(=O)[C@@H](NC(=O)[C@H](CCCCN)NC(=O)[C@H](CO)NC(=O)[C@H](CCCCN)NC(=O)[C@H](CCCCN)NC(=O)[C@H](CC(C)C)NC(=O)[C@H](Cc1ccccc1)NC(=O)[C@H](CCCNC(=N)N)NC(=O)[C@H](Cc1cccc2ccccc12)NC(=O)[C@H](CCC(N)=O)NC(=O)[C@H](C)NC(=O)[C@H](CCCCN)NC(=O)[C@H](Cc1cccc2ccccc12)NC(=O)[C@@H](N)CCCCN)C(C)C)C(=O)N[C@@H](CCC(N)=O)C(=O)N[C@@H](CC(C)C)C(=O)N[C@@H](Cc1c[nH]c2ccccc12)C(=O)N[C@@H](Cc1c[nH]cn1)C(=O)N[C@@H](CCCCN)C(=O)N[C@@H](CCCCN)C(N)=O [BPI.159] (H-K[1Nal]KAQ[1Nal]RFLKKSKVGWLIQLWHKK-NH2; N-terminus and C-terminus assumed) |  |  | 152,678.66 pmol | 14,387.00 pmol |  |  | 765.43 pmol | 50.00 µg/mL (≈ 15.9 µM) |
| CC(C)C[C@H](NC(=O)[C@H](Cc1ccccc1)NC(=O)[C@H](CCCNC(=N)N)NC(=O)[C@H](Cc1cccc2ccccc12)NC(=O)[C@H](CCC(N)=O)NC(=O)[C@H](C)NC(=O)[C@H](CCCCN)NC(=O)[C@H](Cc1cccc2ccccc12)NC(=O)[C@H](CCCCN)NC(=O)[C@H](CCCCN)NC(=O)[C@H](CC(C)C)NC(=O)[C@H](Cc1ccccc1)NC(=O)[C@H](CCCNC(=N)N)NC(=O)[C@H](Cc1cccc2ccccc12)NC(=O)[C@H](CCC(N)=O)NC(=O)[C@H](C)NC(=O)[C@H](CCCCN)NC(=O)[C@H](Cc1cccc2ccccc12)NC(=O)[C@@H](N)CCCCN)C(=O)N[C@@H](CCCCN)C(N)=O [BPI.160] (H-K[1Nal]KAQ[1Nal]RFLKK[1Nal]KAQ[1Nal]RFLK-NH2; N-terminus and C-terminus assumed) |  |  | 2,967.57 pmol | 352,608.37 pmol |  |  | 288.78 pmol | >100.00 µg/mL |
| C[C@@H]1NC(=O)[C@H](CCCCN)NC(=O)[C@H](Cc2c[nH]c3ccccc23)NC(=O)[C@H](CCCCN)NC(=O)[C@@H](N)CSSC[C@@H](C(N)=O)NC(=O)[C@H](Cc2ccccc2)NC(=O)[C@H](CCCNC(=N)N)NC(=O)[C@H](CCCCN)NC(=O)[C@H](CCC(N)=O)NC1=O [BPI.169] (H-CKWKAQKRFC-NH2; disulfide 1-10; N-terminus and C-terminus assumed) |  |  | 36,025.95 pmol | 17,281.61 pmol |  |  | 4,893.83 pmol | >100.00 µg/mL |
| KSKVGWLIQLFHKK [BPI.13p] |  |  |  |  | 2.0 ± 0.3 µg/mL | >50 µg/mL |  |  |
| KSKVKALIQLFHKK [BPI.161] |  |  | b (no detectable activity up to 5 μg/well) | 100,476.32 pmol |  |  | 1,201.79 pmol | 3.13 µg/mL |
| KWKAQKRF [BPI.167] |  |  | b (no detectable activity up to 5 μg/well) | b (no detectable activity up to 5 μg/well) |  |  | 25,489.99 pmol | >50.00 µg/mL |
